From patent US10828515B2, “Compositions containing phenolic compounds having synergistic antioxidant benefits” (L'OREAL, priority 2016, dated 2020) come the findings set out here.

The assay in a line: oxygen radical absorbance capacity assay (ORAC). Conditions: individual antioxidant compounds. The format is biochemical.
Protocol: Synergism was determined by comparing the antioxidant capacities of combinations of components measured by oxygen radical absorbance capacity assay (ORAC) with expected or additive values of the individual compounds. As reflected in the Examples below, the expected ORAC is the combined (additive) antioxidant capacity of each individual antioxidant compound in the association, measured individually and assuming that each is functioning independently. The expected ORAC value of a certain association can be calculated by using the following equation: ORAC (total)=sum of ORAC (compound n, individually) multiplied by the Percentage (compound n, of use in a cosmetic composition), n=1, 2, 3 . . . .
The ORAC assay measures the oxidative degradation of the fluorescent probe (fluorescein) after being mixed with free radical generators such as azo-initiator compounds (2,2′-Azobis(2-amidinopropane)dihydrochloride, AAPH). Azo-initiators are considered to produce the peroxyl radical by heating, which damages the fluorescent molecule, resulting in the loss of fluorescence. Antioxidants are considered to protect the fluorescent molecule from the oxidative degeneration. By quantifying the decay of fluorescence using a fluorometer, the degree of protection is determined comparing with a standard control antioxidant Trolox. The result is expressed in μMol equivalent of Trolox.
Molecule `Cc1c(C)c2c(c(C)c1O)CCC(C)(C(=O)O)O2` (stereo not drawn) [Trolox (VitE), Trolox] showed an ORAC of 1000 μmolTolox/g.
Then `OC[C@H]1O[C@@H](Oc2cc(O)cc(/C=C/c3ccc(O)cc3)c2)[C@H](O)[C@@H](O)[C@@H]1O` [Polydatin], with 20159 μmolTolox/g.
For `O=C(O)[C@H]1O[C@@H](Oc2cc3oc(-c4ccccc4)cc(=O)c3c(O)c2O)[C@H](O)[C@@H](O)[C@@H]1O` [baicalin] the value was 4759 μmolTolox/g.
